Values joined by “and” are separate entries in the source; they are usually repeats but may differ in a detail not shown here. Identical values can stand only once. ± gives the uncertainty stated by the source.
Assay: xn = mol fraction of the nth substance listed

O=CO + C1CCOC1
298.15 K, 101 kPa
Conditions | viscosity [mPa·s]
x2 = 0.0662 | 1.443 ± 0.017
x2 = 0.1376 | 1.396 ± 0.016
x2 = 0.2148 | 1.328 ± 0.015
x2 = 0.2985 | 1.233 ± 0.013
x2 = 0.3896 | 1.114 ± 0.012
x2 = 0.4891 | 0.9824 ± 0.01
x2 = 0.5983 | 0.8395 ± 0.0082
x2 = 0.7186 | 0.6886 ± 0.0065
x2 = 0.8517 | 0.5576 ± 0.0051

O=CO + O
Conditions | viscosity [mPa·s]
293.15 K, 101.33 kPa, x1 = 0.0417 | 1.098 ± 0.011
293.15 K, 101.33 kPa, x1 = 0.1309 | 1.195 ± 0.012
293.15 K, 101.33 kPa, x1 = 0.144 | 1.216 ± 0.012
293.15 K, 101.33 kPa, x1 = 0.1574 | 1.215 ± 0.012
293.15 K, 101.33 kPa, x1 = 0.2621 | 1.323 ± 0.013
293.15 K, 101.33 kPa, x1 = 0.2708 | 1.328 ± 0.013
293.15 K, 101.33 kPa, x1 = 0.281 | 1.344 ± 0.013
293.15 K, 101.33 kPa, x1 = 0.2928 | 1.347 ± 0.013
293.15 K, 101.33 kPa, x1 = 0.3352 | 1.394 ± 0.014
293.15 K, 101.33 kPa, x1 = 0.338 | 1.4 ± 0.014
293.15 K, 101.33 kPa, x1 = 0.3556 | 1.4 ± 0.014
293.15 K, 101.33 kPa, x1 = 0.3729 | 1.414 ± 0.014
293.15 K, 101.33 kPa, x1 = 0.4039 | 1.478 ± 0.015
293.15 K, 101.33 kPa, x1 = 0.4086 | 1.48 ± 0.015
293.15 K, 101.33 kPa, x1 = 0.4832 | 1.519 ± 0.015
293.15 K, 101.33 kPa, x1 = 0.5055 | 1.525 ± 0.015
293.15 K, 101.33 kPa, x1 = 0.5951 | 1.601 ± 0.016
293.15 K, 101.33 kPa, x1 = 0.9418 | 1.68 ± 0.017
298.15 K, 101 kPa, x1 = 0.0122 | 0.907 ± 0.18
298.15 K, 101 kPa, x1 = 0.1286 | 1.041 ± 0.21
298.15 K, 101 kPa, x1 = 0.525 | 1.379 ± 0.28
298.15 K, 101.33 kPa, x1 = 0.1037 | 0.979 ± 0.0098
298.15 K, 101.33 kPa, x1 = 0.1496 | 1.029 ± 0.01
298.15 K, 101.33 kPa, x1 = 0.1753 | 1.039 ± 0.01
298.15 K, 101.33 kPa, x1 = 0.2194 | 1.076 ± 0.011
298.15 K, 101.33 kPa, x1 = 0.3029 | 1.174 ± 0.012
298.15 K, 101.33 kPa, x1 = 0.3271 | 1.219 ± 0.012
298.15 K, 101.33 kPa, x1 = 0.3334 | 1.227 ± 0.012
298.15 K, 101.33 kPa, x1 = 0.3355 | 1.228 ± 0.012
298.15 K, 101.33 kPa, x1 = 0.3729 | 1.268 ± 0.013
298.15 K, 101.33 kPa, x1 = 0.4205 | 1.305 ± 0.013
298.15 K, 101.33 kPa, x1 = 0.4762 | 1.356 ± 0.014
298.15 K, 101.33 kPa, x1 = 0.4906 | 1.36 ± 0.014
298.15 K, 101.33 kPa, x1 = 0.5185 | 1.362 ± 0.014
298.15 K, 101.33 kPa, x1 = 0.6055 | 1.427 ± 0.014
298.15 K, 101.33 kPa, x1 = 0.9418 | 1.598 ± 0.016
303.15 K, 101 kPa, x1 = 0.0501 | 0.849 ± 0.018
303.15 K, 101 kPa, x1 = 0.1061 | 0.897 ± 0.019
303.15 K, 101 kPa, x1 = 0.169 | 0.95 ± 0.02
303.15 K, 101 kPa, x1 = 0.2404 | 0.994 ± 0.021
303.15 K, 101 kPa, x1 = 0.3219 | 1.062 ± 0.022
303.15 K, 101 kPa, x1 = 0.4159 | 1.156 ± 0.024
303.15 K, 101 kPa, x1 = 0.5255 | 1.159 ± 0.024
303.15 K, 101 kPa, x1 = 0.655 | 1.234 ± 0.025
303.15 K, 101 kPa, x1 = 0.8103 | 1.288 ± 0.026
313.15 K, 101.33 kPa, x1 = 0.0417 | 0.729 ± 0.0073
313.15 K, 101.33 kPa, x1 = 0.144 | 0.809 ± 0.0081
313.15 K, 101.33 kPa, x1 = 0.281 | 0.92 ± 0.0092

CC/C(C)=N/O + C1CCCCC1
viscosity [mPa·s], 101.3 kPa
Conditions | x1 = 0.0972 | x1 = 0.1952 | x1 = 0.2926 | x1 = 0.3921 | x1 = 0.4913 | x1 = 0.5914 | x1 = 0.6926 | x1 = 0.7942 | x1 = 0.8967
293.15 K | 1.007 ± 0.007 | 1.072 ± 0.008 | 1.166 ± 0.008 | 1.302 ± 0.009 | 1.489 ± 0.01 | 1.75 ± 0.012 | 2.122 ± 0.014 | 2.681 ± 0.018 | 3.585 ± 0.023
298.15 K | 0.923 ± 0.007 | 0.982 ± 0.007 | 1.065 ± 0.008 | 1.182 ± 0.008 | 1.339 ± 0.009 | 1.567 ± 0.011 | 1.884 ± 0.013 | 2.347 ± 0.016 | 3.035 ± 0.02
303.15 K | 0.844 ± 0.006 | 0.895 ± 0.007 | 0.967 ± 0.007 | 1.068 ± 0.008 | 1.205 ± 0.008 | 1.397 ± 0.01 | 1.667 ± 0.011 | 2.053 ± 0.014 | 2.622 ± 0.017

CC(Cl)(Cl)Cl + CCC(C)O
298.15 K, 101 kPa
Conditions | viscosity [mPa·s]
x1 = 0.099 | 2.21 ± 0.017
x1 = 0.2079 | 1.726 ± 0.014
x1 = 0.2768 | 1.46 ± 0.012
x1 = 0.3656 | 1.225 ± 0.01
x1 = 0.5119 | 1.008 ± 0.009
x1 = 0.5786 | 0.94 ± 0.009
x1 = 0.6988 | 0.85 ± 0.008
x1 = 0.78 | 0.808 ± 0.008
x1 = 0.8911 | 0.781 ± 0.008

NS(=O)(=O)c1cc(C(=O)O)c(NCc2ccco2)cc1Cl + O
viscosity, 101 kPa
Conditions | 293.15 K | 298.15 K | 303.15 K | 308.15 K | 313.15 K
x1 = 2e-05 | 1.009 ± 0.021 mPa·s | 0.8969 ± 0.021 mPa·s and 0.8925 ± 0.021 mPa·s | 0.8057 ± 0.021 mPa·s and 0.8013 ± 0.021 mPa·s | 0.7295 ± 0.021 mPa·s and 0.7245 ± 0.021 mPa·s | 0.6618 ± 0.021 mPa·s and 0.6566 ± 0.021 mPa·s
x1 = 9e-05 | 1.017 ± 0.021 mPa·s and 1.02 ± 0.021 mPa·s | 0.9018 ± 0.021 mPa·s and 0.9048 ± 0.021 mPa·s | 0.81 ± 0.021 mPa·s and 0.8104 ± 0.021 mPa·s | 0.7336 ± 0.021 mPa·s and 0.7368 ± 0.021 mPa·s | 0.6659 ± 0.021 mPa·s
x1 = 0.0002 | 1.022 ± 0.021 mPa·s and 1.018 ± 0.021 mPa·s | 0.9069 ± 0.021 mPa·s and 0.9052 ± 0.021 mPa·s | 0.8174 ± 0.021 mPa·s and 0.8126 ± 0.021 mPa·s | 0.7401 ± 0.021 mPa·s and 0.7333 ± 0.021 mPa·s | 0.6718 ± 0.021 mPa·s and 0.6662 ± 0.021 mPa·s

O=C(O)CC(O)(CC(=O)O)C(=O)O + C[N+](C)(C)CCO.[Cl-]
viscosity [mPa·s], x2 = 0.5
Conditions | 298 K | 303 K | 313 K | 323 K
101 kPa | – | 2085000 ± 590000 | 510000 ± 120000 | –
101.3 kPa | 14480 ± 1200 | – | – | 2242 ± 140

CC(Cl)(Cl)Cl + O=C1CCCCC1
298.15 K, 101.33 kPa
Conditions | viscosity [mPa·s]
x1 = 0.053 | 1.896 ± 0.017
x1 = 0.099 | 1.812 ± 0.017
x1 = 0.151 | 1.725 ± 0.016
x1 = 0.252 | 1.568 ± 0.015
x1 = 0.352 | 1.43 ± 0.013
x1 = 0.452 | 1.305 ± 0.012
x1 = 0.551 | 1.192 ± 0.011
x1 = 0.6 | 1.141 ± 0.011
x1 = 0.651 | 1.089 ± 0.01
x1 = 0.7 | 1.041 ± 0.01
x1 = 0.8 | 0.9504 ± 0.0092
x1 = 0.861 | 0.8988 ± 0.0087

CCCCCBr + C1CCCCC1
308.15 K, 101 kPa
Conditions | viscosity [mPa·s]
x2 = 0.0975 | 0.6428 ± 0.0052
x2 = 0.1991 | 0.6363 ± 0.005
x2 = 0.2997 | 0.6323 ± 0.0049
x2 = 0.398 | 0.6305 ± 0.0048
x2 = 0.5025 | 0.6321 ± 0.0047
x2 = 0.5837 | 0.6355 ± 0.0046
x2 = 0.695 | 0.645 ± 0.0046
x2 = 0.8018 | 0.6614 ± 0.0046
x2 = 0.9007 | 0.6894 ± 0.0047

O=CO + CCCC(C)=O
viscosity [mPa·s], 101 kPa
Conditions | x1 = 0.1002 | x1 = 0.1998 | x1 = 0.3016 | x1 = 0.3992 | x1 = 0.4881 | x1 = 0.5974 | x1 = 0.7186 | x1 = 0.8392 | x1 = 0.8701
298.15 K | 0.5043 ± 0.013 | 0.5479 ± 0.015 | 0.6037 ± 0.016 | 0.6689 ± 0.018 | 0.7348 ± 0.019 | 0.8418 ± 0.022 | 1.003 ± 0.026 | 1.198 ± 0.032 | 1.262 ± 0.033
308.15 K | 0.4519 ± 0.012 | 0.4876 ± 0.013 | 0.5327 ± 0.014 | 0.586 ± 0.016 | 0.6424 ± 0.017 | 0.7294 ± 0.019 | 0.8532 ± 0.023 | 1.011 ± 0.027 | 1.058 ± 0.028
318.15 K | 0.4015 ± 0.011 | 0.4344 ± 0.012 | 0.4713 ± 0.013 | 0.5146 ± 0.014 | 0.5589 ± 0.015 | 0.6331 ± 0.017 | 0.7325 ± 0.019 | 0.8607 ± 0.023 | 0.8982 ± 0.024

CC(Cl)(Cl)Cl + c1ccccc1
303.15 K, 101 kPa
Conditions | viscosity [mPa·s]
x1 = 0.1318 | 0.5946 ± 0.015
x1 = 0.2306 | 0.614 ± 0.016
x1 = 0.3381 | 0.6341 ± 0.016
x1 = 0.4104 | 0.6461 ± 0.017
x1 = 0.4894 | 0.6588 ± 0.017
x1 = 0.5844 | 0.6709 ± 0.017
x1 = 0.6716 | 0.6831 ± 0.018
x1 = 0.7484 | 0.6926 ± 0.018
x1 = 0.8648 | 0.706 ± 0.018
x1 = 0.9221 | 0.7138 ± 0.018

CC(Cl)(Cl)Cl + CCCCCCO
298.15 K, 101.33 kPa
Conditions | viscosity [mPa·s]
x1 = 0.101 | 3.824 ± 0.036
x1 = 0.2 | 3.188 ± 0.03
x1 = 0.301 | 2.631 ± 0.025
x1 = 0.402 | 2.142 ± 0.021
x1 = 0.502 | 1.744 ± 0.017
x1 = 0.601 | 1.43 ± 0.014
x1 = 0.701 | 1.188 ± 0.012
x1 = 0.8 | 1.002 ± 0.0098

From the CheMixHub viscosity set
